Records with an inconclusive call do not appear.
Tested on: M. tuberculosis H37Rv growth inhibition, 7H9 media
Experiment: M. tuberculosis growth inhibition, HTS (AID 449762);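 further: bacterial growth assessed after seven days of incubation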
Details: measured here: IC90 growth inhibition

Row | Structure (SMILES) | IC90
1 | Cc1ccc(NC(=O)Cc2ccc(-c3ccccc3)cc2)nc1 | 61.3 µM
2 | Cc1ccc(CN2CCN(/N=C/c3ccc(Cl)c([N+](=O)[O-])c3)CC2)cc1 | 36.5 µM
3 | COc1ccc(C)cc1Nc1n[n+](-c2ccccc2)c(-c2c(Cl)cccc2Cl)s1 | 25.9 µM
4 | COc1ccc(N(CC(=O)Nc2cc(Cl)ccc2C)S(=O)(=O)c2c(C)n[nH]c2C)cc1 | 51.2 µM
5 | CC(C)(C)C1CCc2nc(NC(=O)Cc3cn4ccsc4n3)sc2C1 (configuration not stated) | 39.6 µM
6 | Cc1ccccc1Nc1nc(N)nc(COC(=O)c2ccc([N+](=O)[O-])o2)n1 | 2.46 µM
7 | C/C(=C1/C(=O)N(c2ccc([N+](=O)[O-])cc2)N=C1c1ccccc1)N(C)C | 31.4 µM
8 | Cc1ccc(/C=N/NC(=S)NC(C)C)o1 | 47.9 µM
9 | Cc1cccc(/C=c2\s/c(=C\C(=O)C(C)(C)C)[nH]c2=O)c1 | 23.6 µM
10 | CCc1ccc2c(c1)/C(=C/C(=O)c1cccs1)C(=O)N2 | 3.19 µM
11 | CCOc1cc(/C=N\NC(=O)Cn2nc([N+](=O)[O-])cc2C)ccc1OCc1cccc2ccccc12 | > 100 µM
12 | Cc1ccc(C(=O)C2CCN(CC(=O)Nc3nc(C)cs3)CC2)cc1 | 25.2 µM
13 | Cc1nc(SCC(=O)NC2CCCCC2)[nH]c(=O)c1C | < 0.2 µM
14 | CCC1C(c2ccccc2)N(C)C(c2ccccc2)CC1(O)c1ccccc1 (configuration not stated) | 25.5 µM
15 | CCc1nnc(N/N=C/c2cc(C)c(C)cc2C)n1N | 16 µM
16 | O=C1CCC(=O)N1CNc1ccc(Oc2ccccc2)cc1 | > 100 µM
17 | O=C(OCc1ccccc1)/C(=C(\O)c1ccccc1Br)c1ccc(-c2ccccc2)cn1 | 45.8 µM
18 | Cc1cccc(N2CCN(CC(=O)Nc3nccs3)CC2)c1C | 58.5 µM
19 | CCOC(=O)Cn1c(C)c(Br)c(=O)c2cccc(C)c21 | 22.7 µM
20 | CCOC(=O)c1sc2nc3n(c(=O)c2c1C)CCC(C)CC3 (configuration not stated) | 39 µM
21 | Cc1nn(Cc2ccccc2)c(C)c1NC(=O)c1cc2nc(-c3ccco3)cc(C(F)(F)F)n2n1 | > 100 µM

Row | Structure (SMILES) | IC90
22 | COc1ccccc1N1CCN(c2ccc(-c3ccccc3)nn2)CC1 | > 100 µM
23 | COc1ccc2c(c1)CCc1c(C(=O)Nc3c(C)n(C)n(-c4ccccc4)c3=O)noc1-2 | > 100 µM
24 | C/C(=N\Nc1nc2c(s1)CCCC2)c1ccccc1 | 34.4 µM
25 | O=C1Nc2ccccc2/C1=N\N=C\C1=C(N2CCOCC2)C(=C\c2ccccc2)/CC1 | 59.8 µM
26 | O=C(c1ccccc1)C1CN(Cc2ccccc2)CCC1(O)c1ccccc1 (configuration not stated) | 14.6 µM
27 | N/C(=N\NC(=O)c1sccc1OCc1ccc(Cl)cc1Cl)c1ccccn1 | 46 µM
28 | Cc1cc(/C=C2\SC(=Nc3ccc(F)cc3)NC2=O)c(C)n1-c1ccc(S(N)(=O)=O)cc1 | 25.5 µM
29 | CCN(CC)c1ccc(N)cc1 | 9.95 µM
30 | Cc1ccc(S(=O)(=O)/N=C(\CCl)N2CCOCC2)cc1 | 14.9 µM
31 | COC(=O)c1ccc(N/C(C)=C/C(=O)c2ccc(C)o2)cc1 | > 100 µM
32 | CC(c1nc2ccccc2c(=O)[nH]1)N(C)CCOc1ccc(Cl)cc1 (configuration not stated) | 51.7 µM
33 | CC(C)NC(=O)c1onc(CSc2ccc(F)c(F)c2)c1C(=O)O | 18.9 µM
34 | C=CCOc1c(Br)cc(CNc2nccs2)cc1OC | 40.9 µM
35 | Clc1ccc2c(c1)C(c1ccccc1Cl)=NCc1nnc(N3CCN(CCOc4ccccc4)CC3)n1-2 | 48 µM
36 | Cc1cnc(NC(=O)NCC2CCCC(CNC(=O)Nc3ncc(C)s3)C2)s1 (configuration not stated) | 28.2 µM
37 | Cn1ccnc1C(O)c1cc(C(C)(C)C)c(O)c(C(C)(C)C)c1 (configuration not stated) | > 100 µM
38 | CCc1ccc(N=CC23c4ccccc4C(c4ccccc42)C2C(=O)N(c4ccc(OC)cc4)C(=O)C23)cc1 (configuration not stated) | > 100 µM
39 | O=[N+]([O-])c1ccc(N2CCCCC2)s1 | 17.9 µM
40 | COCCCN=C1NN=C(c2cc(C)n(Cc3ccco3)c2C)CS1 | 87.4 µM
41 | CC(C)(C)c1csc(NC(=O)c2c(F)c(F)c(F)c(F)c2F)n1 | 25.2 µM
42 | CN(CCCNC(=O)c1cc2c(Cl)nc3ccccc3c2s1)Cc1ccccc1 | 61 µM

Row | Structure (SMILES) | IC90
43 | Cn1cnc([N+](=O)[O-])c1Sc1ccc(Br)cc1 | 16.9 µM
44 | Cc1oc(-c2cccc(Cl)c2)nc1CN1CCC(C(=O)N2CCN(c3ccccc3F)CC2)CC1 | 26.3 µM
45 | OCCCNc1cc(-c2ccnc(Nc3cccc(Cl)c3)n2)ccn1 | 45 µM
46 | Cc1ccc(C(=O)/C=C/C(=O)c2ccc(C)cc2)cc1 | 7.63 µM
47 | CCOC(=O)c1cc(C)nc(Sc2ccc(C)cc2)c1C#N | 11.3 µM
48 | CC(C)(C)OC(=O)NCCCCCc1nnc(SCc2ccc(F)cc2)o1 | 48.2 µM
49 | OC(CN1CCN(c2ccccn2)CC1)Cn1c2ccccc2c2ccccc21 (configuration not stated) | 51.7 µM
50 | c1ccc(CN2CCN(c3nc(NCc4ccco4)c4ccccc4n3)CC2)cc1 | 23.8 µM
51 | COc1ccc2nc(NC(=O)C3CCCN(S(=O)(=O)c4cccs4)C3)sc2c1 (configuration not stated) | 27.6 µM
52 | CCOC(=O)c1[nH]c(CN2CCN(c3ccc(OC)cc3)CC2)c(C(=O)OCC)c1C | 26 µM
53 | O=C1NCC(O)=C1C=Nc1ccccc1O | 6.49 µM
54 | N#CCn1c(CCl)nc2ccccc2c1=O | 17.4 µM
55 | CC(=O)N1CCN(c2ccc(OC[C@H]3CO[C@](Cn4ccnc4)(c4ccc(Cl)cc4Cl)O3)cc2)CC1 | 25.2 µM
56 | CCc1ccc2oc(-c3ccc(OC)cc3)cc(=Nc3c(C)n(C)n(-c4ccccc4)c3=O)c2c1 | 25.1 µM
57 | CCOC(=O)c1ccc(NC(=S)NCCc2ccc(F)cc2)cc1 | > 100 µM
58 | CCCCCCc1cc2cc(C(=O)NCc3ccccc3)c(=N)oc2cc1O | 5.73 µM
59 | O=c1c(-c2cnn(-c3ccccc3)c2)coc2cc(O)ccc12 | > 100 µM
60 | Cc1ccc(C)c(C2C(=O)c3ccccc3C2=O)c1 | 16.3 µM
61 | CCOC(=O)c1ccc(N=C2SC(C(=O)Nc3ccc(C(=O)O)cc3)CC(=O)N2Cc2cccs2)cc1 (configuration not stated) | > 100 µM
62 | CC1(O)CC(c2ccc(Cl)cc2)=NN1C(=O)c1ccc([N+](=O)[O-])cc1 (configuration not stated) | > 100 µM

Source: PubChem BioAssay AID449762 (Southern Research Specialized Biocontainment Screening …, 2010)
